According to BindingDB's records for doi:10.1111/cbdd.12255 (Federal University of Rio De Janeiro, 2014):

What was measured:
[1] = biological target: T1, Amine oxidase [flavin-containing] B (Homo sapiens, UniProt P27338); assay: MAO Assay; settings: pH 7.4; 37 °C
T1 sequence (P27338 whole entry): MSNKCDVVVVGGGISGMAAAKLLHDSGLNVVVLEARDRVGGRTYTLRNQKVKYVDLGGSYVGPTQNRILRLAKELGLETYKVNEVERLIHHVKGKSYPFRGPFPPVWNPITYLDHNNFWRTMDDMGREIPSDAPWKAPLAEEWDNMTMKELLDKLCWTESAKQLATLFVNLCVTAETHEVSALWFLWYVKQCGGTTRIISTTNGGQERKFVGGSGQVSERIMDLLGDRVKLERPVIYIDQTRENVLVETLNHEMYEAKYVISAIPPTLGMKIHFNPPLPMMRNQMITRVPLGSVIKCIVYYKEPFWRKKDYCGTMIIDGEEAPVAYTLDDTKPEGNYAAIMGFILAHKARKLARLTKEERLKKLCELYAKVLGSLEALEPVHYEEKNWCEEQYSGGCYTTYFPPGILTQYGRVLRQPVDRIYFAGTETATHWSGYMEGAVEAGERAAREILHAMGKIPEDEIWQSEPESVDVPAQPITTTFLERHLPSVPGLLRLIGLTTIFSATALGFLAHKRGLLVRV
Description: (§1) The reaction mixture (final volume 200 µL) contained 5 µg/mL MAO-A or MAO-B in a 50 mM sodium phosphate buffer pH 7.4, 1 mM p-tyramine (substrate for MAO-A) or 1 mM benzyl-amine (substrate for MAO-B), 1 U/mL HRP, and 200 µM AR was incubated, in the presence or absence of the inhibitors, at 37 °C for 45 min. The enzyme plus inhibitors were incubated at 37 °C for 20 min followed by the addition of the substrates, HRP and AR. The inhibitors were dissolved in 100% DMSO, and equivalent concentrations of DMSO alone (1-2%) were used as controls. Clorgyline (MAO-A inhibitor) or pargyline (MAO-B inhibitor) at 5 µM concentration was used as positive control for inhibition.

[2] = biological target: T2, Amine oxidase [flavin-containing] A (Homo sapiens, UniProt P21397); assay: MAO Assay; settings: pH 7.4; 37 °C
T2 sequence (P21397 whole entry): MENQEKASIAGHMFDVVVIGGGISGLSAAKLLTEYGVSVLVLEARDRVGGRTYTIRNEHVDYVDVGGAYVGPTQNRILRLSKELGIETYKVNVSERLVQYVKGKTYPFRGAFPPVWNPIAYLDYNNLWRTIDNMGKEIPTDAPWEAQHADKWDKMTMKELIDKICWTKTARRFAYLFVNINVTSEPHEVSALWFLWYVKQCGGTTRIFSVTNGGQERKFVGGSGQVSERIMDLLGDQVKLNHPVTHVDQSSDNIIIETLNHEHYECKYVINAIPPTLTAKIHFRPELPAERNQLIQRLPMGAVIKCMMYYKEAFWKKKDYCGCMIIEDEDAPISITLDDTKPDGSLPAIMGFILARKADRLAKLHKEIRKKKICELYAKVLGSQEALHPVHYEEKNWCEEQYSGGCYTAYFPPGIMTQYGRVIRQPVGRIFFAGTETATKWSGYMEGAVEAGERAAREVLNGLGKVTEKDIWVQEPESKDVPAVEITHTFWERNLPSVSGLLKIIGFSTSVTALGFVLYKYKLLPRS
Description: as §1

Ki [1] [µM]	Ki [2] [µM]	SMILES
18	35	CC(C)C=C1C(=O)C(=O)c2ccccc2C1=O
12	28	NCCCN(CCCC=Nc1cc(O)c2ccccc2c1O)Cc1ccccc1 [2‐({4‐[(3‐ aminopropyl)(benzyl)amino]butyl}amino)naphthalene‐ 1,4‐dione (Compound b2)]
58	63	CC(C)=Cc1c(N=CCCCN(CCCN)Cc2ccccc2)c(O)c2ccccc2c1O [2‐({4‐[(3‐aminopropyl)(benzyl)amino]butyl}amino)‐3‐ (2‐methylprop‐1‐en‐1‐yl)naphthalene‐1,4‐dione (Compound c2)]
40	22	CC(C)=CCc1c(N=CCCCN(CCCN)Cc2ccccc2)c(O)c2ccccc2c1O [2‐({4‐[(3‐aminopropyl)(benzyl)amino]butyl}amino)‐3‐ (3‐methylbut‐2‐en‐1‐yl)naphthalene‐1,4‐dione (Compound a2)]
59	–	CC(C)=CCC1C(=O)C(=O)c2ccccc2C1=O (centres undefined) [4-hydroxy-3-(3-methylbut-2-enyl)naphthalene-1,2-dione]
